The numbers were not newly measured in patent US12151031B2, “Topical copper tripeptide composition” (YUVAN RESEARCH, INC., priority 2018, dated 2024), which cites them from elsewhere.

The conditions of this data set: in vivo.

“glycyl-histidyl-lysin tripeptide in the form of its Cu Complex [GHK-Cu]”: the Elimination half-life is 1.5 to 2 h.
